Results published in article PMC5732813, “Novel piplartine-containing ruthenium complexes: synthesis, cell growth inhibition, apoptosis induction and ROS production on HCT116 cells” (Oncotarget, 2017).
“And” between values parts separate entries of the source, which are not always exact repeats. Equal entries are not always repeated.

How the values were obtained:
[1] = test system: cancer multicellular spheroids formed from HCT116 cells; assay: 3D multicellular spheroids culture, alamar blue assay; format: cell-based, human; settings: Homo sapiens, HCT-116; 3D spheroids of HCT116, 72 h treatment, alamar blue; read-out: IC50
Protocol: Cell viability was quantified using the alamar blue assay, according to Ahmed et al.. Cells were inserted in 96-well plates for all experiments (7 x 10^4 cells/mL for adherent cells or 3 x 10^5 cells/mL for suspended cells in 100 μL of medium). […] Negative controls received the vehicle that was used for diluting the compounds tested.
HCT116 cells were cultivated in 3D multicellular spheroids. Briefly, 100 μL of a solution of cells (0.5 x 10^6 cells/mL) were inserted in 96-well plate with a cell-repellent surface (Greiner Bio-One, Kremsmünster, Austria) and cultured in RPMI 1640 medium with 10% fetal bovine serum, 2 mM glutamine, 3% matrigel (BD Biosciences, San Jose, CA, EUA) and 50 μg/mL gentamycin at 37°C with 5% CO2. […] Negative control received the vehicle that was used for diluting the compounds tested. In the end of the experiment, morphological changes were examined by light microscopy (Olympus BX41, Tokyo, Japan) using Image-Pro software (Media Cybernetics, Inc. Silver Spring, USA) and the cell viability was determined by alamar blue assay as described above.

HCT116 cells [2] = assay: Gene expression analysis by qPCR array (TaqMan Array Human Molecular Mechanisms of Cancer); format: cell-based; settings: HCT116, 12 h, DOX 1 μM, PL 10 μM, 1 2.5 μM, 2 5 μM, negative control RQ = 1.0
Protocol: HCT116 cells were plated in bottles tissue culture (7x10^4 cells/mL). After 12h of incubation with the complexes, total RNA was isolated from the cells using the RNeasy Plus mini kit (Qiagen, Hilden, Germany) according to the manufacturer’s instructions. The RNA was evaluated by fluorimetry (QuBit™, Life Technologies, Camarillo, CA, EUA). RNA reverse transcription was performed using Superscript VILO™ (Invitrogen Corporation, Waltham, MA, USA). A 96-well plate TaqMan® Array Human Molecular Mechanisms of Cancer (ID 4418806, Applied Biosystems™, Foster City, CA, EUA) was used for the gene expression study by qPCR. The reactions were conducted in the ABI ViiA7 (Applied Biosystems™, Foster City, CA, EUA). The cycle conditions comprised 2 min at 50 °C, 20 s at 95 °C, then 40 cycles of 3 s at 95 °C and 30 s at 60 °C. […] The GAPDH, 18S and HPRT1 genes were used for normalization. All experiments were performed in DNase/RNase free conditions.

HCT116 cells [3] = assay: Internucleosomal DNA fragmentation and cell cycle distribution (DNA content, flow cytometry); format: cell-based, human; settings: HCT116, 1 μM, mean ± S.E.M.
Protocol: Cells were harvested in a permeabilization solution containing 0.1% triton X-100 (Sigma Chemical Co. St Louis, MO, USA), 2 μg/mL propidium iodide (Sigma Chemical Co. St Louis, MO, USA), 0.1% sodium citrate and 100 μg/mL RNAse (Sigma Chemical Co. St Louis, MO, USA) and incubated in the dark for 15 min at room temperature.

`COc1cccc2c1C(=O)c1c(O)c3c(c(O)c1C2=O)C[C@@](O)(C(=O)CO)C[C@@H]3O[C@H]1C[C@H](N)[C@H](O)[C@H](C)O1` [Doxorubicin] was tested, and the IC50 [1] was 6.3 µM, the “RQ ABL1” value (HCT116 cells [2]) was 0.912 and the “RQ AKT1” value (HCT116 cells [2]) was 1.840. For the same molecule, the “RQ AKT2” value (HCT116 cells [2]) was 3.877, the “RQ APC” value (HCT116 cells [2]) was 0.908 and the “RQ BAX” value (HCT116 cells [2]) was 3.274. For the same molecule, the “RQ BCAR1” value (HCT116 cells [2]) was 1.809, the “RQ BCL2L1” value (HCT116 cells [2]) was 2.391 and the “RQ BCL2L11” value (HCT116 cells [2]) was 1.152. The “RQ BID” value (HCT116 cells [2]) was 1.757, the “RQ BRAF” value (HCT116 cells [2]) was 0.513 and the “RQ CASP9” value (HCT116 cells [2]) was 0.530. The “RQ CCND3” value (HCT116 cells [2]) was 1.438, the “RQ CCNE1” value (HCT116 cells [2]) was 0.894 and the “RQ CDC42” value (HCT116 cells [2]) was 1.271. For the same molecule, the “RQ CDK2” value (HCT116 cells [2]) was 1.257, the “RQ CDK4” value (HCT116 cells [2]) was 0.983 and the “RQ CDKN1A” value (HCT116 cells [2]) was 2.853. The “RQ CDKN1B” value (HCT116 cells [2]) was 0.766, the “RQ CRK” value (HCT116 cells [2]) was 0.867 and the “RQ CTNNB1” value (HCT116 cells [2]) was 0.939. The “RQ DVL1” value (HCT116 cells [2]) was 1.252, the “RQ E2F1” value (HCT116 cells [2]) was 1.018 and the “RQ ELK1” value (HCT116 cells [2]) was 1.263. For the same molecule, the “RQ ERBB2” value (HCT116 cells [2]) was 2.605, the “RQ FAS” value (HCT116 cells [2]) was 2.372 and the “RQ FGF2” value (HCT116 cells [2]) was 0.625. For the same molecule, the “RQ GRB2” value (HCT116 cells [2]) was 0.761, the “RQ GSK3B” value (HCT116 cells [2]) was 1.342 and the “RQ GUSB” value (HCT116 cells [2]) was 5.0. For the same molecule, the “RQ HRAS” value (HCT116 cells [2]) was 0.691, the “RQ ITGB1” value (HCT116 cells [2]) was 0.489 and the “RQ ITGB3” value (HCT116 cells [2]) was 5.579. The “RQ KRAS” value (HCT116 cells [2]) was 0.951, the “RQ MAPK1” value (HCT116 cells [2]) was 0.903 and the “RQ MAPK8” value (HCT116 cells [2]) was 1.185. For the same molecule, the “RQ MAPK14” value (HCT116 cells [2]) was 0.786, the “RQ MDM2” value (HCT116 cells [2]) was 1.479 and the “RQ MYC” value (HCT116 cells [2]) was 0.876. The “RQ NFKB1” value (HCT116 cells [2]) was 0.784, the “RQ NFKB2” value (HCT116 cells [2]) was 1.250 and the “RQ NRAS” value (HCT116 cells [2]) was 0.556. For the same molecule, the “RQ PIK3CA” value (HCT116 cells [2]) was 0.409, the “RQ RB1” value (HCT116 cells [2]) was 0.532 and the “RQ RELA” value (HCT116 cells [2]) was 0.862. For the same molecule, the “RQ RHOA” value (HCT116 cells [2]) was 0.900, the “RQ SRC” value (HCT116 cells [2]) was 1.383 and the “RQ TCF3” value (HCT116 cells [2]) was 1.135. For the same molecule, the “RQ TGFB1” value (HCT116 cells [2]) was 0.495, the “RQ TGFBR1” value (HCT116 cells [2]) was 1.216 and the “RQ VEGFA” value (HCT116 cells [2]) was 0.610. For the same molecule, the “RQ BCL2” value (HCT116 cells [2]; listed as DOX) was 3.1 and 3.090, the “RQ CCND1” value (HCT116 cells [2]; listed as DOX) was 1.1 and 1.124 and the “RQ CDH1” value (HCT116 cells [2]; listed as DOX) was 7.1 and 7.107. The “RQ CDKN2A” value (HCT116 cells [2]; listed as DOX) was 1.8 and 1.793, the “RQ CYCS” value (HCT116 cells [2]; listed as DOX) was 1.0 and 0.993 and the “RQ EGFR” value (HCT116 cells [2]; listed as DOX) was 0.8 and 0.831. The “RQ FADD” value (HCT116 cells [2]; listed as DOX) was 1.1 and 1.049, the “RQ FN1” value (HCT116 cells [2]; listed as DOX) was 3.6 and 3.575 and the “RQ FOS” value (HCT116 cells [2]; listed as DOX) was 11.8 and 11.834. For the same molecule, the “RQ FYN” value (HCT116 cells [2]; listed as DOX) was 1.3 and 1.248, the “RQ FZD1” value (HCT116 cells [2]; listed as DOX) was 1.0 and 0.994 and the “RQ IGF1R” value (HCT116 cells [2]; listed as DOX) was 1.4 and 1.389. For the same molecule, the “RQ ITGA2B” value (HCT116 cells [2]; listed as DOX) was 4.5 and 4.514, the “RQ ITGAV” value (HCT116 cells [2]; listed as DOX) was 1.3 and 1.265 and the “RQ JUN” value (HCT116 cells [2]; listed as DOX) was 4.1 and 4.073. The “RQ MAP2K1” value (HCT116 cells [2]; listed as DOX) was 0.7 and 0.681, the “RQ MAP3K5” value (HCT116 cells [2]; listed as DOX) was 1.0 and 1.006 and the “RQ MAPK3” value (HCT116 cells [2]; listed as DOX) was 2.8 and 2.758. For the same molecule, the “RQ NFKBIA” value (HCT116 cells [2]; listed as DOX) was 2.3 and 2.326, the “RQ PIK3R1” value (HCT116 cells [2]; listed as DOX) was 2.0 and 1.999 and the “RQ PTEN” value (HCT116 cells [2]; listed as DOX) was 1.8 and 1.750. For the same molecule, the “RQ PTK2” value (HCT116 cells [2]; listed as DOX) was 1.2 and 1.182, the “RQ PTK2B” value (HCT116 cells [2]; listed as DOX) was 3.4 and 3.368 and the “RQ RAC1” value (HCT116 cells [2]; listed as DOX) was 0.9 and 0.845. The “RQ RAF1” value (HCT116 cells [2]; listed as DOX) was 2.0 and 2.027, the “RQ SHC1” value (HCT116 cells [2]; listed as DOX) was 0.6 and 0.640 and the “RQ SMAD4” value (HCT116 cells [2]; listed as DOX) was 1.0 and 0.963. For the same molecule, the “RQ SOS1” value (HCT116 cells [2]; listed as DOX) was 0.7 and 0.741, the “RQ SPP1” value (HCT116 cells [2]; listed as DOX) was 1.2 and 1.165 and the “RQ TGFBR2” value (HCT116 cells [2]; listed as DOX) was 0.9 and 0.914. The “RQ TP53” value (HCT116 cells [2]; listed as DOX) was 3.3 and 3.250, the “DNA content (%) G0/G1” value (HCT116 cells [3]; 24h) was 22.1 ± 2.4% and the “DNA content (%) G2/M” value (HCT116 cells [3]; 24h) was 59.0 ± 2.8 %. For the same molecule, the “DNA content (%) Sub-G0/G1” value (HCT116 cells [3]; 24h) was 5.2 ± 1.4%, the “DNA content (%) G0/G1” value (HCT116 cells [3]; 48h) was 15.8 ± 2.0 % and the “DNA content (%) G2/M” value (HCT116 cells [3]; 48h) was 49.0 ± 5.9 %. The “DNA content (%) Sub-G0/G1” value (HCT116 cells [3]; 48h) was 21.8 ± 5.4 %.
